Results from patent US12539292B2, “BRM targeting compounds and associated methods of use” (Arvinas Operations, Inc., priority 2018, dated 2026).

Target: T1, BRM (Homo sapiens, UniProt P51531)
T1 construct: In-Cell Western Screen of BRM Degradation in SW1573 Cells; endogenous in cells; host or cells: SW1573
Test: In-cell Western screen of BRM degradation in SW1573 cells (Dmax and DC50)
Assay type: cell-based
Conditions: BRM degradation, SW1573 cells; for DC50: read-out: DC50; for Dmax: read-out: Dmax (% degraded)
How it was run: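 Overnight compound treatment (18-20 h, final DMSO 0.1%) of SW1573 cells in DMEM with 10% FBS precedes fixation and in-cell Western staining with 800/680 nm dye-labelled secondaries. Plate images give DC50 and maximal degradation.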

T1 sequence (P51531 whole entry): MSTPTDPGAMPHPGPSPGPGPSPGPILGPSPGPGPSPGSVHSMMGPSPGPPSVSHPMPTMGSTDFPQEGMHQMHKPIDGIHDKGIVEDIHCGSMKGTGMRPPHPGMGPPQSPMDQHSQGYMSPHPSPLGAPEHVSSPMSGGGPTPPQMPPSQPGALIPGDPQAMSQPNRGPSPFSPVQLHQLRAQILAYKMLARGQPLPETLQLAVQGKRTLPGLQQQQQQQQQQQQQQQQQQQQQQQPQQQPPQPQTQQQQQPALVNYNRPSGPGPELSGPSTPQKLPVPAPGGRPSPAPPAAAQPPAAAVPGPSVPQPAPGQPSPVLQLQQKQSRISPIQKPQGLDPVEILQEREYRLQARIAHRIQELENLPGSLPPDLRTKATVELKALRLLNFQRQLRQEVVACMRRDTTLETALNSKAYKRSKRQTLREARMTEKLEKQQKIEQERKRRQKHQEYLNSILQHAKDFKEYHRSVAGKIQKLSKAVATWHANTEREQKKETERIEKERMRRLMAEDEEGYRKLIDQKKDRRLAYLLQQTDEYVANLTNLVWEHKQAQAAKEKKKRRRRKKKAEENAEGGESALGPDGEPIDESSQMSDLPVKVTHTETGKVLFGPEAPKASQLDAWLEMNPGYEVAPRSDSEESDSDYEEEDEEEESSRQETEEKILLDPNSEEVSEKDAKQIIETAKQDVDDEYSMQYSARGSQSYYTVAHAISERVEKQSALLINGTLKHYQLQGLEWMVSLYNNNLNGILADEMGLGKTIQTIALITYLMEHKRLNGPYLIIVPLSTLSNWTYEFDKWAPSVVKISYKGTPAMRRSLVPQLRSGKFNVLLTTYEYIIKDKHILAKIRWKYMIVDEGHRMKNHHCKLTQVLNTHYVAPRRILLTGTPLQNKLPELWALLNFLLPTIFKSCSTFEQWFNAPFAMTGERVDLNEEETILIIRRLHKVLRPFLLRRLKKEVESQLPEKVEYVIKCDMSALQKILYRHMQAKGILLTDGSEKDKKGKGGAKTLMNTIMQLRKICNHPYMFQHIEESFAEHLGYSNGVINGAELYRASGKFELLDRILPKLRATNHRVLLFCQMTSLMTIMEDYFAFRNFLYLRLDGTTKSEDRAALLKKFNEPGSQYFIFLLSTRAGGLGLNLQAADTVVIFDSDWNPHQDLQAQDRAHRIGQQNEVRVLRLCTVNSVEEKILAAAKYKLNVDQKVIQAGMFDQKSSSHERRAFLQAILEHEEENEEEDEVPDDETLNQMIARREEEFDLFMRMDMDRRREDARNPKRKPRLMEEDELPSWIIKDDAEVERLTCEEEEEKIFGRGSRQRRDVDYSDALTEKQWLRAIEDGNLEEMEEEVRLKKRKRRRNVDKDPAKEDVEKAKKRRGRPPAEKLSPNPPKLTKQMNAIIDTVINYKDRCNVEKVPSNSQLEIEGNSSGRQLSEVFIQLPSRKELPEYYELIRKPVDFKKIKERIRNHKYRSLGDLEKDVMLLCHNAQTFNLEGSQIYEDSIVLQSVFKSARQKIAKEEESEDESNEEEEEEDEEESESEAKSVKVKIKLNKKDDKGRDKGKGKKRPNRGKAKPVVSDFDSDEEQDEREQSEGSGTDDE

Structure (SMILES)	DC50	Dmax
Cc1ncsc1-c1ccc([C@H](C)NC(=O)[C@@H]2C[C@@H](O)CN2C(=O)[C@H](c2cc(N3CCC(CN4CCC(O[C@H]5C[C@H](Oc6cc(N7C8CCC7CN(c7cc(-c9ccccc9O)nnc7N)C8)ccn6)C5)CC4)CC3)no2)C(C)C)cc1F [compound 651, (2S,4R)-1-((2S)-2-(3-(4-((4-((1r,3r)-3-((4-(3-(3-amino-6-(2-hydroxyphenyl)pyridazin-4-yl)-3,8-diazabicyclo[3.2.1]octan-8-yl)pyridin-2-yl)oxy)cyclobutoxy)piperidin-1-yl)methyl)piperidin-1-yl)isoxazol-5-yl)-3-methylbutanoyl)-N-((S)-1-(3-fluoro-4-(4-methylthiazol-5-yl)phenyl)ethyl)-4-hydroxypyrrolidine-2-carboxamide]	> 30 nM	–
Cc1ncsc1-c1ccc([C@H](C)NC(=O)[C@@H]2C[C@@H](O)CN2C(=O)[C@@H](c2cc(N3CCC(CN4CCC(O[C@H]5C[C@H](Oc6cc(N7C8CCC7CN(c7cc(-c9ccccc9O)nnc7N)C8)ccn6)C5)CC4)CC3)no2)C(C)C)cc1F [compound 652, (2S,4R)-1-((2R)-2-(3-(4-((4-((1r,3r)-3-((4-(3-(3-amino-6-(2-hydroxyphenyl)pyridazin-4-yl)-3,8-diazabicyclo[3.2.1]octan-8-yl)pyridin-2-yl)oxy)cyclobutoxy)piperidin-1-yl)methyl)piperidin-1-yl)isoxazol-5-yl)-3-methylbutanoyl)-N-((S)-1-(3-fluoro-4-(4-methylthiazol-5-yl)phenyl)ethyl)-4-hydroxypyrrolidine-2-carboxamide]	< 2.5 nM	> 75%
Cc1ncsc1-c1ccc([C@H](CO)NC(=O)[C@@H]2C[C@@H](O)CN2C(=O)[C@@H](c2cc(N3CCC(CN4CCC(O[C@H]5C[C@H](Oc6cc(N7C8CCC7CN(c7cc(-c9ccccc9O)nnc7N)C8)ccn6)C5)CC4)CC3)no2)C(C)C)cc1 [compound 653, (2S,4R)-1-((2R)-2-(3-(4-((4-((1r,3r)-3-((4-(3-(3-amino-6-(2-hydroxyphenyl)pyridazin-4-yl)-3,8-diazabicyclo[3.2.1]octan-8-yl)pyridin-2-yl)oxy)cyclobutoxy)piperidin-1-yl)methyl)piperidin-1-yl)isoxazol-5-yl)-3-methylbutanoyl)-4-hydroxy-N-((R)-2-hydroxy-1-(4-(4-methylthiazol-5-yl)phenyl)ethyl)pyrrolidine-2-carboxamide]	< 2.5 nM	> 75%
CC[C@H](NC(=O)[C@@H]1C[C@@H](O)CN1C(=O)[C@@H](c1cc(N2CCC(CN3CCC(O[C@H]4C[C@H](Oc5cc(N6C7CCC6CN(c6cc(-c8ccccc8O)nnc6N)C7)ccn5)C4)CC3)CC2)no1)C(C)C)c1ccc(-c2scnc2C)cc1 [compound 654, (2S,4R)-1-((2R)-2-(3-(4-((4-((1r,3r)-3-((4-(3-(3-amino-6-(2-hydroxyphenyl)pyridazin-4-yl)-3,8-diazabicyclo[3.2.1]octan-8-yl)pyridin-2-yl)oxy)cyclobutoxy)piperidin-1-yl)methyl)piperidin-1-yl)isoxazol-5-yl)-3-methylbutanoyl)-4-hydroxy-N-((S)-1-(4-(4-methylthiazol-5-yl)phenyl)propyl)pyrrolidine-2-carboxamide]	< 2.5 nM	> 75%
Cc1ncsc1-c1ccc([C@H](C)NC(=O)[C@@H]2C[C@@H](O)CN2C(=O)[C@H](c2cc(N3CCCC(CN4CCC(O[C@H]5C[C@H](Oc6cc(N7C8CCC7CN(c7cc(-c9ccccc9O)nnc7N)C8)ccn6)C5)CC4)C3)no2)C(C)C)cc1 (stereo partly drawn) [compound 655, (2S,4R)-1-((2S)-2-(3-(3-((4-((1r,3S)-3-((4-(3-(3-amino-6-(2-hydroxyphenyl)pyridazin-4-yl)-3,8-diazabicyclo[3.2.1]octan-8-yl)pyridin-2-yl)oxy)cyclobutoxy)piperidin-1-yl)methyl)piperidin-1-yl)isoxazol-5-yl)-3-methylbutanoyl)-4-hydroxy-N-((S)-1-(4-(4-methylthiazol-5-yl)phenyl)ethyl)pyrrolidine-2-carboxamide]	> 30 nM	–
Cc1ncsc1-c1ccc([C@H](C)NC(=O)[C@@H]2C[C@@H](O)CN2C(=O)[C@H](c2cc(N3CCC4(CCCN(C[C@H]5C[C@H](Oc6cc(N7C8CCC7CN(c7cc(-c9ccccc9O)nnc7N)C8)ccn6)C5)C4)CC3)no2)C(C)C)cc1 [compound 659, (2S,4R)-1-((2S)-2-(3-(2-(((1r,3S)-3-((4-(3-(3-amino-6-(2-hydroxyphenyl)pyridazin-4-yl)-3,8-diazabicyclo[3.2.1]octan-8-yl)pyridin-2-yl)oxy)cyclobutyl)methyl)-2,9-diazaspiro[5.5]undecan-9-yl)isoxazol-5-yl)-3-methylbutanoyl)-4-hydroxy-N-((S)-1-(4-(4-methylthiazol-5-yl)phenyl)ethyl)pyrrolidine-2-carboxamide]	> 30 nM	–
Cc1ncsc1-c1ccc([C@H](C)NC(=O)[C@@H]2C[C@@H](O)CN2C(=O)[C@@H](c2cc(N3CCC4(CCCN(C[C@H]5C[C@H](Oc6cc(N7C8CCC7CN(c7cc(-c9ccccc9O)nnc7N)C8)ccn6)C5)C4)CC3)no2)C(C)C)cc1 [compound 660, (2S,4R)-1-((2R)-2-(3-(2-(((1r,3R)-3-((4-(3-(3-amino-6-(2-hydroxyphenyl)pyridazin-4-yl)-3,8-diazabicyclo[3.2.1]octan-8-yl)pyridin-2-yl)oxy)cyclobutyl)methyl)-2,9-diazaspiro[5.5]undecan-9-yl)isoxazol-5-yl)-3-methylbutanoyl)-4-hydroxy-N-((S)-1-(4-(4-methylthiazol-5-yl)phenyl)ethyl)pyrrolidine-2-carboxamide]	< 2.5 nM	> 75%
Cc1ncsc1-c1ccc([C@H](CCO)NC(=O)[C@@H]2C[C@@H](O)CN2C(=O)[C@@H](c2cc(N3CCC(CN4CCC(O[C@H]5C[C@H](Oc6cc(N7C8CCC7CN(c7cc(-c9ccccc9O)nnc7N)C8)ccn6)C5)CC4)CC3)no2)C(C)C)cc1 [compound 661, (2S,4R)-1-((2R)-2-(3-(4-((4-((1r,3r)-3-((4-(3-(3-amino-6-(2-hydroxyphenyl)pyridazin-4-yl)-3,8-diazabicyclo[3.2.1]octan-8-yl)pyridin-2-yl)oxy)cyclobutoxy)piperidin-1-yl)methyl)piperidin-1-yl)isoxazol-5-yl)-3-methylbutanoyl)-4-hydroxy-N-((S)-3-hydroxy-1-(4-(4-methylthiazol-5-yl)phenyl)propyl)pyrrolidine-2-carboxamide]	< 2.5 nM	> 75%
Cc1ncsc1-c1ccc([C@@H](CCO)NC(=O)[C@@H]2C[C@@H](O)CN2C(=O)[C@@H](c2cc(N3CCC(CN4CCC(O[C@H]5C[C@H](Oc6cc(N7C8CCC7CN(c7cc(-c9ccccc9O)nnc7N)C8)ccn6)C5)CC4)CC3)no2)C(C)C)cc1 [compound 662, (2S,4R)-1-((2R)-2-(3-(4-((4-((1r,3r)-3-((4-(3-(3-amino-6-(2-hydroxyphenyl)pyridazin-4-yl)-3,8-diazabicyclo[3.2.1]octan-8-yl)pyridin-2-yl)oxy)cyclobutoxy)piperidin-1-yl)methyl)piperidin-1-yl)isoxazol-5-yl)-3-methylbutanoyl)-4-hydroxy-N-((R)-3-hydroxy-1-(4-(4-methylthiazol-5-yl)phenyl)propyl)pyrrolidine-2-carboxamide]	2.5 to 10 nM	> 75%
CC[C@@H](NC(=O)[C@@H]1C[C@@H](O)CN1C(=O)[C@@H](c1cc(N2CCC(CN3CCC(O[C@H]4C[C@H](Oc5cc(N6C7CCC6CN(c6cc(-c8ccccc8O)nnc6N)C7)ccn5)C4)CC3)CC2)no1)C(C)C)c1ccc(-c2scnc2C)cc1 [compound 663, (2S,4R)-1-((2R)-2-(3-(4-((4-((1r,3r)-3-((4-(3-(3-amino-6-(2-hydroxyphenyl)pyridazin-4-yl)-3,8-diazabicyclo[3.2.1]octan-8-yl)pyridin-2-yl)oxy)cyclobutoxy)piperidin-1-yl)methyl)piperidin-1-yl)isoxazol-5-yl)-3-methylbutanoyl)-4-hydroxy-N-((R)-1-(4-(4-methylthiazol-5-yl)phenyl)propyl)pyrrolidine-2-carboxamide]	2.5 to 10 nM	50 to 75%
Cc1ncsc1-c1ccc([C@H](C)NC(=O)[C@@H]2C[C@@H](O)CN2C(=O)[C@@H](c2cc(N3CCC(CN4CCC(O[C@H]5C[C@@H](CN6CCC(C(C)n7cc(-c8cc(-c9ccccc9O)nnc8N)cn7)CC6)C5)CC4)CC3)no2)C(C)C)cc1 (stereo partly drawn) [compound 664, (2S,4R)-1-((2R)-2-(3-(4-((4-((1s,3s)-3-((4-(1-(4-(3-amino-6-(2-hydroxyphenyl)pyridazin-4-yl)-1H-pyrazol-1-yl)ethyl)piperidin-1-yl)methyl)cyclobutoxy)piperidin-1-yl)methyl)piperidin-1-yl)isoxazol-5-yl)-3-methylbutanoyl)-4-hydroxy-N-((S)-1-(4-(4-methylthiazol-5-yl)phenyl)ethyl)pyrrolidine-2-carboxamide]	< 2.5 nM	> 75%
Cc1ncsc1-c1ccc([C@H](C)NC(=O)[C@@H]2C[C@@H](O)CN2C(=O)[C@@H](c2cc(N3CCC(CN4CCC(O[C@H]5C[C@@H](N6CCC(C(C)n7cc(-c8cc(-c9ccccc9O)nnc8N)cn7)CC6)C5)CC4)CC3)no2)C(C)C)cc1 (stereo partly drawn) [compound 665, (2S,4R)-1-((2R)-2-(3-(4-((4-((1s,3s)-3-(4-(1-(4-(3-amino-6-(2-hydroxyphenyl)pyridazin-4-yl)-1H-pyrazol-1-yl)ethyl)piperidin-1-yl)cyclobutoxy)piperidin-1-yl)methyl)piperidin-1-yl)isoxazol-5-yl)-3-methylbutanoyl)-4-hydroxy-N-((S)-1-(4-(4-methylthiazol-5-yl)phenyl)ethyl)pyrrolidine-2-carboxamide]	< 2.5 nM	> 75%
